Data: patent US20080163390A1, “METHODS AND COMPOSITIONS FOR PROVIDING SA-INDEPENDENT PATHOGEN RESISTANCE IN PLANTS” (UNIVERSITY OF KENTUCKY RESEARCH FOUNDATION, priority 2007, published 2008)

How the values were obtained:
HRT = HRT transcript levels (RT-PCR) in glycerol-treated plants; assay type: in vivo, Arabidopsis; details: exogenous glycerol
Source text: (§1) (A) PR-1 gene expression and 18:1 content in water (W)- and glycerol (G)-treated plants. Ethidium bromide staining of rRNA was used as a loading control. The 18:1 levels are a mean of six independent replicates. (B) RT-PCR analyses showing expression of HRT and SSI4 genes in water- and glycerol-treated plants shown in A. The level of β-tubulin was used as an internal control to normalize the amount of cDNA template. (C) Visible HR formation in water (W)- and glycerol (G)-treated HRT sid2, HRT pad4 and HRT act1 plants at 3 dpi. (D) Percentage TCV resistant plants obtained after exogenous application of water, SA or glycerol. Wild type (HRT or hrt), HRT sid2, HRT pad4 and HRT act1 plants were inoculated 48 h post-treatment and resistance was analyzed 3-weeks post-inoculation. The number of plants tested are indicated above each bar. […] RNA was extracted from the uninoculated tissues at 18 dpi and analyzed for the presence of the viral transcripts (TCV-U). […]
(§2) RNA extraction, RT-PCR and northern analyses. […] RNA quality and concentration were determined by gel electrophoresis and determination of A260. […] Two-to-three independent RNA preparations were used for RT-PCR and each of these were analyzed at least twice by RT-PCR. […] The number of amplification cycles was reduced to 22-25 in order to evaluate and quantify any differences among transcript levels before they reached saturation.

18:1 content = experiment: Fatty acid analysis of leaf 18:1 content (gas chromatography); assay type: in vivo, Arabidopsis
Source text: FIG. 6A-B depicts an abbreviated scheme for lipid biosynthesis and in plant oleic acid levels after 18:1 infiltrations. (A) De novo fatty acid (FA) synthesis occurs exclusively in the plastids of all plant cells and leads to the synthesis of palmitic acid (16:0)-acyl carrier protein (ACP) and oleic acid (18:1)-ACP. These FAs enter glycerolipid synthesis either via the prokaryotic pathway in the inner envelope of chloroplasts or are exported out of plastids as CoA thioesters to enter the eukaryotic glycerolipid synthesis pathway. Symbols for various components are: CoA, coenzyme A; Lyso-PA, acyl-G3P; PA, phosphatidic acid; PG, phosphatidylglycerol; MGDG, monogalactosyldiacylglycerol; DGDG, digalactosyldiacylglycerol; SL, sulfolipid; DAG, diacylglycerol; DHAP, dihydroxyacetone phosphate. (B) In planta oleic acid levels after 18:1 infiltrations. The HRT ssi2 sid2 leaves were infiltrated with water or 1 mM oleic acid and the fatty acid levels were determined 24 h post treatment from treated and untreated leaves. The 18:1 levels from the untreated wild type plant (HRT) were used as a control.
Fatty acid analysis and oleic acid infiltration. Fatty acid analysis was carried out using gas chromatorgraphy. Oleic acid (Sigma) was dissolved in water and injected into leaves using a needle-less syringe. […]

[1] = tested on: Turnip Crinkle Virus (TCV); experiment: TCV resistance after exogenous application of SA or glycerol; assay type: in vivo, Arabidopsis; details: for resistance to TCV (percentage of resistant plants): inoculated 48 h post-treatment, analyzed 3 weeks post-inoculation
Source text: (§3) (A) PR-1 gene expression and 18:1 content in water (W)- and glycerol (G)-treated plants. Ethidium bromide staining of rRNA was used as a loading control. The 18:1 levels are a mean of six independent replicates. (B) RT-PCR analyses showing expression of HRT and SSI4 genes in water- and glycerol-treated plants shown in A. The level of β-tubulin was used as an internal control to normalize the amount of cDNA template. (C) Visible HR formation in water (W)- and glycerol (G)-treated HRT sid2, HRT pad4 and HRT act1 plants at 3 dpi. (D) Percentage TCV resistant plants obtained after exogenous application of water, SA or glycerol. Wild type (HRT or hrt), HRT sid2, HRT pad4 and HRT act1 plants were inoculated 48 h post-treatment and resistance was analyzed 3-weeks post-inoculation. The number of plants tested are indicated above each bar. Asterisk indicates 100% susceptibility. (E) Systemic spread of TCV to uninoculated tissue in TCV-inoculated plants. RNA was extracted from the uninoculated tissues at 18 dpi and analyzed for the presence of the viral transcripts (TCV-U). Ethidium bromide staining of rRNA was used as a loading control. (F) Typical morphological phenotypes of TCV-inoculated plants that were sprayed either with water (W) or glycerol (G) prior to inoculation. Plants were photographed at 18 dpi.
(§4) Pathogen inoculations. Transcripts synthesized in vitro from a cloned cDNA of TCV using T7 RNA polymerase were used for viral infections. For inoculations, the viral transcript was suspended at a concentration of 0.05 μg/μl in inoculation buffer, and the inoculation was performed. After viral inoculations, the plants were transferred to a Conviron MTR30 reach-in chamber maintained at 22° C., 65% relative humidity and 14 hour photoperiod. Inoculations with Pseudomonas syringae were conducted.
(§5) SA and glycerol treatments. SA and glycerol treatments were carried out by spraying 500 μM and 50 mM solutions, respectively, prepared in sterile water.

[2] = tested on: Turnip Crinkle Virus (TCV); experiment: Visible HR formation to TCV in glycerol-treated plants; assay type: in vivo, Arabidopsis; details: glycerol-treated wild-type, HRT sid2 and HRT pad4 plants; 3 dpi
Source text: as §3
Pathogen inoculations. […]

SA levels = SA levels after glycerol application; assay type: in vivo, Arabidopsis; details: dependent on functional SID2 protein
Procedure: as §5
Exogenous application of glycerol confers resistance to TCV in an SA-independent but ACT1-dependent manner. Additional evidence supporting a role for 18:1 in regulating HRT gene expression was obtained by glycerol treatment of several genotypes. […] This is because the act1 plants are blocked in the step leading to the acylation of glycerol-3-phosphate with 18:1. […] Since the upregulation of HRT abolishes visible HR to TCV, the development of HR in various glycerol-treated plants was monitored. […] Thus, although the SA-mediated induction of HRT is dependent on PAD4, 18:1-mediated induction of HRT is independent of PAD4.

PR-1 = PR-1 gene expression (northern analysis) in glycerol-treated plants; assay type: in vivo, Arabidopsis; details: exogenous glycerol
Source text: as §1, §2

[3] = tested on: Turnip Crinkle Virus (TCV); experiment: TCV replication and systemic spread after 18:1 infiltration of leaves; assay type: in vivo, Arabidopsis
Source text: (A) RT-PCR analyses showing basal level expression of HRT in HRT ssi2 act1 and HRT ssi2 gly1 plants. The level of β-tubulin was used as an internal control to normalize the amount of cDNA template. The 18:1 levels are a mean of six independent replicates. (B) Systemic spread of TCV to uninoculated tissue in TCV-inoculated plants. RNA was extracted from the uninoculated tissues at 18 dpi and analyzed for the presence of the viral transcripts (TCV-U). Ethidium bromide staining of rRNA was used as a loading control. (C) Typical morphological phenotypes of mock-and TCV-inoculated HRT ssi2 act1 and HRT ssi2 gly1 plants. […] Plants were photographed at 8 dpi. (D) Effect of 18:1 infiltrations on viral replication in the inoculated leaf. Oleic acid (O, 1 mM) or water (W) was injected 24 h before or after (last two lanes) TCV inoculation and the samples were harvested 3 days post inoculation (dpi).
as §4
Fatty acid analysis and oleic acid infiltration. Fatty acid analysis was carried out using gas chromatorgraphy. Oleic acid (Sigma) was dissolved in water and injected into leaves using a needle-less syringe. To determine the 18:1 concentration required to elevate the leaf 18:1 content in ssi2 plants to wild-type levels, 50 μm to 10 mM were injected into ssi2 leaves followed by fatty acid profiling. A concentration of 500 μm to 1 mM was considered optimal, with similar results being obtained upon injection of either of these concentrations.
RNA extraction, RT-PCR and northern analyses. Small-scale extraction of RNA from one or two leaves was performed in the TRIzol reagent (Invitrogen, Gaihersburg, Md.) following the manufacturer's instructions. RNA quality and concentration were determined by gel electrophoresis and determination of A260. Northern blot analysis and synthesis of random primed probes for PR-1 were carried out. Reverse transcription (RT) and first strand cDNA synthesis was carried out using Superscript II (Invitrogen). Two-to-three independent RNA preparations were used for RT-PCR and each of these were analyzed at least twice by RT-PCR. The RT-PCR was carried out for 35 cycles in order to determine absolute levels of transcripts. The number of amplification cycles was reduced to 22-25 in order to evaluate and quantify any differences among transcript levels before they reached saturation. […]

[4] = tested on: Turnip Crinkle Virus (TCV); details: exogenous SA prior to dark-treatment of Di-17 plants; cited from earlier work

| SMILES | HRT transcript levels (HRT; HRT act1 plants) | HRT transcript levels (HRT; wild-type, HRT sid2 and HRT pad4 plants) | 18:1 content (18:1 content; exogenous glycerol (50 mM spray), wild-type, HRT sid2 and HRT pad4 plants) | resistance to TCV (percentage of resistant plants) ([1]; Col-0 (hrt) plants) | resistance to TCV (percentage of resistant plants) ([1]; HRT act1 plants) | resistance to TCV (percentage of resistant plants) ([1]; HRT pad4 plants) | more TCV-resistant plants in comparison to SA pretreatment ([1]; HRT sid2 plants, glycerol vs SA pretreatment) [%] | resistance to TCV (percentage of resistant plants) ([1]; HRT sid2 plants) | visible HR to TCV [2] | SA levels (SA levels) | PR-1 gene expression (PR-1; HRT sid2 plants) | PR-1 gene expression (PR-1; wild-type and HRT pad4 plants) | 18:1 levels after exogenous application of 18:1 (18:1 content; HRT ssi2 sid2, site of infiltration vs untreated leaves, 24 h post treatment) | TCV replication in inoculated leaf ([3]; 18:1 infiltrated 24 h after TCV inoculation) | increase in amount of TCV transcript in inoculated leaf ([3]; HRT ssi2 sid2 leaves, 18:1 infiltrated before TCV inoculation) | systemic spread of the virus ([3]; HRT ssi2 sid2 plants, 18:1 injections) | TCV replication (TCV transcript) in the inoculated leaves ([3]; wild-type Di-17 or Col-0 leaves, 18:1 (1 mM) vs water injected 24 h before TCV inoculation, 3 dpi) | dark-triggered susceptibility to TCV [4] |
| --- | --- | --- | --- | --- | --- | --- | --- | --- | --- | --- | --- | --- | --- | --- | --- | --- | --- | --- |
| OCC(O)CO [glycerol] | not in HRT act1 | induced HRT transcript levels | lowered 18:1 content | not in HRT act1 or Col-0 plants | not in HRT act1 or Col-0 plants | significantly enhanced resistance | ~30 | enhanced resistance to TCV | developed no visible HR | induced high levels of SA | failed to induce PR-1 gene expression | upregulation of PR-1 gene expression |  |  |  |  |  |  |
| CCCCCCCC/C=C\CCCCCCCC(=O)O [18:1, oleic acid] |  |  |  |  |  |  |  |  |  |  |  |  | only normalized 18:1 levels locally | remained unaffected | 6-8 fold | did not allow systemic spread of the virus | did not appear to alter TCV replication |  |
| O=C(O)c1ccccc1O [SA, Salicylic acid, reference compound] |  |  |  |  | substantial increase | only a marginal increase |  |  |  |  |  |  |  |  |  |  |  | prevents dark-triggered susceptibility |
